Test results from ChEMBL document CHEMBL1773011, “New and more efficient multivalent glyco-ligands for asialoglycoprotein receptor of mammalian hepatocytes” (Bioorg Med Chem, 2011).

Test: Displacement of Eu-DTPA labeled ASOR from rat primary hepatocytes Asialoglycoprotein receptor after 20 mins by fluorometric analysis
Assay type: cell-based
Conditions: hepatocyte

Compared with `NCCCCC(C(=O)NCCCCCCOC1O[C@H](CO)[C@@H](O[C@@H]2O[C@H](CO)[C@H](O)[C@H](O)[C@H]2O)[C@H](O)[C@H]1O)N(CC(=O)NCCCCCCOC1O[C@H](CO)[C@@H](O[C@@H]2O[C@H](CO)[C@H](O)[C@H](O)[C@H]2O)[C@H](O)[C@H]1O)CC(=O)NCCCCCCOC1O[C@H](CO)[C@@H](O[C@@H]2O[C@H](CO)[C@H](O)[C@H](O)[C@H]2O)[C@H](O)[C@H]1O` (some centres undefined), `CC(=O)N[C@@H]1C(OCCCCCCNC(=O)C(CCCCNC(=O)OCc2ccccc2)N(CC(=O)NCCCCCCOC2O[C@H](CO)[C@H](O)[C@H](O)[C@H]2NC(C)=O)CC(=O)NCCCCCCOC2O[C@H](CO)[C@H](O)[C@H](O)[C@H]2NC(C)=O)O[C@@H](CO)[C@@H](O)[C@H]1O` (stereo in doubt) is lower in IC50: over 1 µM for the first, 0.012 µM for the second.

Going from `CC(=O)NC1C(OCCCCCCNC(=O)CNC(=O)C[C@H](NC(=O)[C@H](CC(=O)NCC(=O)NCCCCCCOC2O[C@@H](CO)[C@@H](O)[C@@H](O)C2NC(C)=O)NC(=O)[C@@H](N)Cc2ccc(O)cc2)C(=O)NCC(=O)NCCCCCCOC2O[C@@H](CO)[C@@H](O)[C@@H](O)C2NC(C)=O)O[C@@H](CO)[C@@H](O)[C@H]1O` (single isomer, unassigned) to `CC(=O)N[C@H]1C(OCCCCCCNC(=O)CNC(=O)CN(CC(=O)NCC(=O)NCCCCCCOC2O[C@H](CO)[C@H](O)[C@H](O)[C@H]2NC(C)=O)C(CCCCNC(=O)OCc2ccccc2)C(=O)NCC(=O)NCCCCCCOC2O[C@H](CO)[C@H](O)[C@H](O)[C@H]2NC(C)=O)O[C@H](CO)[C@H](O)[C@@H]1O` (stereo in doubt), the IC50 falls from 0.02 µM to 0.001 µM (20-fold). The second is the more potent here.
